In PubChem BioAssay AID2060512 (Molecular Pharmacology Branch, DTP, NCI, 2025):

Test system: 186277-243-T-J2-PDC complex spheroid viability
Assay: Anticancer human tumor 186277-243-T-J2-PDC patient-derived colon adenocarcinoma cell line growth inhibition [GQUAD]
Settings: for IC50: curve of first compound; for viability, T/C: stronger effect = lower value
Description: DNA G-quadruplex Stabilizer Agents in Combinations in Complex Spheroids
A high-throughput screen of multi-cell type tumor spheroids was designed to identify active combinations of DNA G-quadruplex stabilizer agents and targeted small molecules. Complex spheroids include a stromal component modeled by human endothelial cells (HUVEC) and fibroblasts modeled by human mesenchymal stem cells (MSCs). The concentration ranges selected for each drug and investigational agent were based upon clinically achievable concentrations if the clinical Cmax of the agent was known.
Compounds. The drugs and investigational agents: pidnarulex (CX-5461; NSC782164), APTO-253 (NSC789042), BRACO-19 (NSC847499), peposertib (NSC802822), ceralasertib (NSC780249), elimusertib (NSC800525), camonsertib (NSC841442), AZD-1390 (NSC803789), olaparib (NSC753686), talazoparib (NSC767125), ART-558 (NSC835418), sotorasib (NSC818433), MRTX-1133 (NSC836407), SN-38 (NSC673596), topotecan (NSC609699), etoposide (NSC141540), doxorubicin (NSC123127), gemcitabine (NSC613327), 5-fluorouracil (NSC19893), paclitaxel (NSC125973), vemurafenib (NSC761431), panobinostat (NSC761190), R-306465 (JNJ-16241199; NSC773264), adavosertib (NSC754352), TP-3654 (NSC805149), carboplatin (NSC241240), KSQ-4279 (NSC840948), and staurosporine (NSC755774) were obtained from the National Cancer Institute (NCI) Developmental Therapeutics Program Chemical Repository (34). The FDA-approved anticancer drug set is available from the NCI Developmental Therapeutics Program. […] The stock solutions were prepared in dimethyl sulfoxide (DMSO, Sigma-Aldrich, St. Louis, MO, cat. D2650) at 800-fold the tested concentration and stored at -70 degrees C prior to their use. All drugs and investigational agents were tested over a range starting from a high concentration at or near the clinical Cmax and decreasing in half-log increments. If the clinical Cmax for an agent had not been determined, the highest concentration tested was 10 microM.
2.3 Cell Culture. All cells were maintained in an incubator at 37 degrees C and 5% CO2 with 95% humidity. The PDC lines were cultured according to standard operating procedures established by the NCI PDMR. All PDCs were thawed and cultured in Matrigel-coated flasks prepared with a working solution of 1X Ham's F-12 nutrient mix, without supplementation (Invitrogen, cat. 11765054), 100 U/mL penicillin-streptomycin (Invitrogen, cat. 15140122), and 2.5% Matrigel (Corning Inc., cat. 354248) for the first three passages. The 857933-349-R-J2-PDC line was cultured in 6C/Colon 1B media, which includes advanced DMEM/F-12 (Thermo Fisher Scientific, cat. 12634028), 10 mM HEPES (Thermo Fisher Scientific, cat. 15630080), 1X GlutaMAX supplement (Thermo Fisher Scientific, cat. 35050061), 0.1 mg/mL primocin (InvivoGen, cat. ant-pm-2), 10% defined fetal bovine serum, heat inactivated (HyClone Laboratories Inc., cat. SH30070.03HI), 50% L-WRN conditioned media (ATCC, cat. CRL-3276), 1.25 mM N-Acetyl-L-cysteine (Sigma-Aldrich, cat. A9165), 10 mM nicotinamide (Sigma-Aldrich, cat. N0636), 1X B-27 supplement (Thermo Fisher Scientific, cat. 17504044), 1X N-2 supplement (Thermo Fisher Scientific, cat. 17502048), 10 microM Y-27632 dihydrochloride (Tocris Bioscience, cat. 1254), and 50 ng/mL human EGF recombinant protein (Thermo Fisher Scientific, cat. PHG0311). The 485176-168-R4-J1-PDC line was cultured in Panc media, which includes all 6C/Colon 1B media components plus 100 ng/mL human FGF-10 (Thermo Fisher Scientific, cat. 100-26), 500 nM SB-431542 (Selleckchem, cat. S1067), and gastrin (Tocris, cat. 3006).
[…]

[1] = second compound 0.0316 µM, first compound 0.0316 µM
[2] = second compound 0.0316 µM, first compound 0.1 µM
[3] = second compound 0.0316 µM, first compound 0.316 µM
[4] = second compound 0.0316 µM, first compound 1 µM
[5] = second compound 0.0316 µM, first compound 3.16 µM
[6] = second compound 0.0316 µM, first compound 10 µM
[7] = second compound 0.1 µM, first compound 0.0316 µM
[8] = second compound 0.1 µM, first compound 0.1 µM
[9] = second compound 0.1 µM, first compound 0.316 µM
[10] = second compound 0.1 µM, first compound 1 µM
[11] = second compound 0.1 µM, first compound 3.16 µM
[12] = second compound 0.1 µM, first compound 10 µM
[13] = second compound 0.316 µM, first compound 0.0316 µM
[14] = second compound 0.316 µM, first compound 0.1 µM
[15] = second compound 0.316 µM, first compound 0.316 µM
[16] = second compound 0.316 µM, first compound 1 µM
[17] = second compound 0.316 µM, first compound 3.16 µM
[18] = second compound 0.316 µM, first compound 10 µM
[19] = second compound 1 µM, first compound 0.0316 µM
[20] = second compound 1 µM, first compound 0.1 µM
[21] = second compound 1 µM, first compound 0.316 µM
[22] = second compound 1 µM, first compound 1 µM
[23] = second compound 1 µM, first compound 3.16 µM
[24] = second compound 1 µM, first compound 10 µM
[25] = second compound 3.16 µM, first compound 0.0316 µM
[26] = second compound 3.16 µM, first compound 0.1 µM
[27] = second compound 3.16 µM, first compound 0.316 µM
[28] = second compound 3.16 µM, first compound 1 µM
[29] = second compound 3.16 µM, first compound 3.16 µM
[30] = second compound 3.16 µM, first compound 10 µM
[31] = second compound 10 µM, first compound 0.0316 µM
[32] = second compound 10 µM, first compound 0.1 µM
[33] = second compound 10 µM, first compound 0.316 µM
[34] = second compound 10 µM, first compound 1 µM
[35] = second compound 10 µM, first compound 3.16 µM
[36] = second compound 10 µM, first compound 10 µM
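Also: spheroids exposed to drugs for 7 days.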
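For viability, T/C in this document: 100% = DMSO vehicle control viability.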

**Q.** CC1COCCN1c1cc(C2(O)CC3CCC(C2)O3)c2cnn(-c3ccn[nH]3)c2n1 (centres undefined) + Cc1[nH]c2ccc(F)cc2c1-c1nc2c3cccnc3c3ncccc3c2[nH]1 was tested. Which IC50 (second compound 0.0316 µM) did it give?
**A.** 38.1 nM

**Q.** What about the IC50 (second compound 0.1 µM) of the same compound?
**A.** 33.9 nM

**Q.** What about the IC50 (second compound 0.316 µM) of the same compound?
**A.** < 31.6 nM

**Q.** What about the IC50 (second compound 1 µM) of the same compound?
**A.** < 31.6 nM

**Q.** What about the IC50 (second compound 3.16 µM) of the same compound?
**A.** < 31.6 nM

**Q.** What about the IC50 (second compound 10 µM) of the same compound?
**A.** 33.2 nM

**Q.** What about the viability, T/C [1] of the same compound?
**A.** 57.5%

**Q.** And the viability, T/C [2]?
**A.** 10.8%

**Q.** And the viability, T/C [3]?
**A.** 6.48%

**Q.** What about the viability, T/C [4] of the same compound?
**A.** 5.12%

**Q.** And the viability, T/C [5]?
**A.** 5.33%

**Q.** And the viability, T/C [6]?
**A.** 4.69%

**Q.** What about the viability, T/C [7] of the same compound?
**A.** 52.6%

**Q.** And the viability, T/C [8]?
**A.** 10.2%

**Q.** And the viability, T/C [9]?
**A.** 8.88%

**Q.** And the viability, T/C [10]?
**A.** 4.75%

**Q.** And the viability, T/C [11]?
**A.** 5.69%

**Q.** What about the viability, T/C [12] of the same compound?
**A.** 3.63%

**Q.** And the viability, T/C [13]?
**A.** 31.9%

**Q.** And the viability, T/C [14]?
**A.** 11.2%

**Q.** And the viability, T/C [15]?
**A.** 8.68%

**Q.** What about the viability, T/C [16] of the same compound?
**A.** 5.79%

**Q.** And the viability, T/C [17]?
**A.** 6.74%

**Q.** And the viability, T/C [18]?
**A.** 4.58%

**Q.** And the viability, T/C [19]?
**A.** 40.6%

**Q.** What about the viability, T/C [20] of the same compound?
**A.** 22.6%

**Q.** And the viability, T/C [21]?
**A.** 6.11%

**Q.** And the viability, T/C [22]?
**A.** 7.77%

**Q.** What about the viability, T/C [23] of the same compound?
**A.** 6.18%

**Q.** What about the viability, T/C [24] of the same compound?
**A.** 4.27%

**Q.** And the viability, T/C [25]?
**A.** 48.3%

**Q.** And the viability, T/C [26]?
**A.** 14.4%

**Q.** What about the viability, T/C [27] of the same compound?
**A.** 6.36%

**Q.** What about the viability, T/C [28] of the same compound?
**A.** 4.01%

**Q.** And the viability, T/C [29]?
**A.** 5.26%

**Q.** And the viability, T/C [30]?
**A.** 2.84%

**Q.** And the viability, T/C [31]?
**A.** 52%

**Q.** What about the viability, T/C [32] of the same compound?
**A.** 16.5%

**Q.** And the viability, T/C [33]?
**A.** 8.81%

**Q.** What about the viability, T/C [34] of the same compound?
**A.** 3.92%

**Q.** What about the viability, T/C [35] of the same compound?
**A.** 4.33%

**Q.** And the viability, T/C [36]?
**A.** 1.45%

**Q.** What does the source list for O=C(c1cc(Cc2n[nH]c(=O)c3ccccc23)ccc1F)N1CCN(C(=O)C2CC2)CC1 + Cc1[nH]c2ccc(F)cc2c1-c1nc2c3cccnc3c3ncccc3c2[nH]1?
**A.** IC50 (second compound 0.0316 µM): > 10000 nM; IC50 (second compound 0.1 µM): > 10000 nM; IC50 (second compound 0.316 µM): > 10000 nM; IC50 (second compound 1 µM): > 10000 nM; IC50 (second compound 3.16 µM): > 10000 nM; IC50 (second compound 10 µM): > 10000 nM; viability, T/C [1]: 110%; viability, T/C [2]: 91.6%; viability, T/C [3]: 103%; viability, T/C [4]: 90.9%; viability, T/C [5]: 98.8%; viability, T/C [6]: 54.9%; viability, T/C [7]: 93.2%; viability, T/C [8]: 106%; viability, T/C [9]: 97%; viability, T/C [10]: 100%; viability, T/C [11]: 82.3%; viability, T/C [12]: 66.2%; viability, T/C [13]: 98.1%; viability, T/C [14]: 94.5%; viability, T/C [15]: 91.3%; viability, T/C [16]: 92.6%; viability, T/C [17]: 89.9%; viability, T/C [18]: 53.8%; viability, T/C [19]: 79.3%; viability, T/C [20]: 99.4%; viability, T/C [21]: 97.4%; viability, T/C [22]: 86%; viability, T/C [23]: 89.2%; viability, T/C [24]: 62.1%; viability, T/C [25]: 99%; viability, T/C [26]: 101%; viability, T/C [27]: 113%; viability, T/C [28]: 105%; viability, T/C [29]: 93.1%; viability, T/C [30]: 68.3%; viability, T/C [31]: 89%; viability, T/C [32]: 102%; viability, T/C [33]: 114%; viability, T/C [34]: 87.6%; viability, T/C [35]: 86.5%; viability, T/C [36]: 59.2%
